Key:
[1] = test system: RAW264.7; assay: Anti-inflammatory activity against mouse RAW264.7 cells assessed as inhibition of LPS-induced NO production measured after 24 hrs incubation by Griess assay; assay type: functional, cell-based; conditions: RAW264.7, 24 h
[2] = test system: RAW264.7; assay: Anti-inflammatory activity against mouse RAW264.7 cells assessed as inhibition of LPS-induced NO production at 5 uM measured after 24 hrs incubation by Griess assay relative to control; assay type: functional
[3] = Cytotoxicity against mouse RAW264.7 cells assessed as cell viability at 5 uM measured after 24 hrs incubation by MTT assay relative to control; assay type: toxicity, cell-based; conditions: read-out: Activity

SMILES | IC50 [1] [µM] | inhibition at 5 µM [2] [%] | viability at 24 h, 5 µM [3] [%]
C[C@]12CC[C@H]3[C@@H](CC=C4C[C@@H](O)CC[C@@]43C)[C@@H]1CC[C@@H]2C1=NN(C2=NC(=O)CS2)C(c2ccc(F)cc2)C1 (stereo partly drawn) | 4.24 | 44.7 | 90.9
C[C@]12CC[C@H]3[C@@H](CC=C4C[C@@H](O)CC[C@@]43C)[C@@H]1CC[C@@H]2C1=NN(C2=NC(=O)CS2)C(c2ccccc2Cl)C1 (stereo partly drawn) | 12.2 | 52.6 | 81.1
CCc1ccc(C2CC([C@H]3CC[C@H]4[C@@H]5CC=C6C[C@@H](O)CC[C@]6(C)[C@H]5CC[C@]34C)=NN2C2=NC(=O)CS2)cc1 (stereo partly drawn) | – | 39.9 | 82.8
Cc1cccc(C2CC([C@H]3CC[C@H]4[C@@H]5CC=C6C[C@@H](O)CC[C@]6(C)[C@H]5CC[C@]34C)=NN2C2=NC(=O)CS2)c1 (stereo partly drawn) | 2.9 | 51.9 | 75.9
C[C@]12CC[C@H]3[C@@H](CC=C4C[C@@H](O)CC[C@@]43C)[C@@H]1CC[C@@H]2C1=NN(C2=NC(=O)CS2)C(c2ccccc2F)C1 (stereo partly drawn) | 5.41 | 46.8 | 86.4
CSc1ccc(C2CC([C@H]3CC[C@H]4[C@@H]5CC=C6C[C@@H](O)CC[C@]6(C)[C@H]5CC[C@]34C)=NN2C2=NC(=O)CS2)cc1 (stereo partly drawn) | – | 45.2 | 82.2
COc1ccc(C2CC([C@H]3CC[C@H]4[C@@H]5CC=C6C[C@@H](O)CC[C@]6(C)[C@H]5CC[C@]34C)=NN2C2=NC(=O)CS2)cc1 (stereo partly drawn) | – | 30.7 | 95.9
C[C@]12CC[C@H]3[C@@H](CC=C4C[C@@H](O)CC[C@@]43C)[C@@H]1CC[C@@H]2C1=NN(C2=NC(=O)CS2)C(c2ccccc2OCc2ccccc2)C1 (stereo partly drawn) | – | 48.2 | 69
C[C@]12CC[C@H]3[C@@H](CC=C4C[C@@H](O)CC[C@@]43C)[C@@H]1CC[C@@H]2C1=NN(C2=NC(=O)CS2)C(c2cccc(Cl)c2)C1 (stereo partly drawn) | 5.14 | 50.7 | 73.3

Reference: ChEMBL document CHEMBL5500377, “Design, synthesis and molecular modeling of novel D-ring substituted steroidal 4,5-dihydropyrazole thiazolinone derivatives as anti-inflammatory agents by inhibition of COX-2/iNOS production and down-regulation of NF-κB/MAPKs in LPS-induced RAW264.7 macrophage cells” (Eur J Med Chem, 2024)
